Target: T1, CPT-1a (carnitine palmitoyltransferase-1) (Mus musculus, UniProt P97742)
T1 sequence (P97742 2-773): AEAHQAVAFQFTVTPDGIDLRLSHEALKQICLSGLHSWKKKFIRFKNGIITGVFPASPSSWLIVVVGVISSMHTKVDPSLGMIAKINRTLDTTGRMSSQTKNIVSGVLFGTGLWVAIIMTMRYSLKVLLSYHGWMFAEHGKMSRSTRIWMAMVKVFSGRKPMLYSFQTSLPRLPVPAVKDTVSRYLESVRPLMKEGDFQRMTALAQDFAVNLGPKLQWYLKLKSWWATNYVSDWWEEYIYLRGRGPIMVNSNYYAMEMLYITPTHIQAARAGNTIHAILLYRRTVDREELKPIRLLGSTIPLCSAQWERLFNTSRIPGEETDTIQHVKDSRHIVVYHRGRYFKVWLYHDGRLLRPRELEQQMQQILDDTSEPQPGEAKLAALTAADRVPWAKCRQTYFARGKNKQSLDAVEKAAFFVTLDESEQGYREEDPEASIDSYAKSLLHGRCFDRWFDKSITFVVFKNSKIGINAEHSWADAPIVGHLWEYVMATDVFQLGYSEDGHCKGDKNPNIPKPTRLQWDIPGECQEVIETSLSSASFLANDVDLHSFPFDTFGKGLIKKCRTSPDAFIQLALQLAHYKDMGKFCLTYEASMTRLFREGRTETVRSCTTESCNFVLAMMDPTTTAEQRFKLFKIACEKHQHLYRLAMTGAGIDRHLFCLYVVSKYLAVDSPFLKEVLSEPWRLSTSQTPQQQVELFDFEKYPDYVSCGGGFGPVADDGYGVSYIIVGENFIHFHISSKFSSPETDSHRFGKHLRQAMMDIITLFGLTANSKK
Format: biochemical

- palmitoyl-CoA-driven respiration in permeabilized mouse BMDMs pretreated with et: < 3 µM
SMILES: CCOC(=O)[C@@]1(CCCCCCOc2ccc(Cl)cc2)CO1 [Eto, etomoxir]
